Laboratory results from patent publication US8318914B2, “Elongases and methods for producing polyunsaturated fatty acids in transgenic organisms” (priority 2007, dated 2012).
Like-named read-outs stand apart in the source and are kept apart here.

Assays:
D9Elo(Ro) = type: cell-based, Rhizopus oryzae; details: 250 μM fatty acid fed to transformed yeast INVSC-1, 12 h induction medium
Method: Positive colonies were identified by PCR. […] In parallel, the empty vector pYES2.1/V5-His-TOPO was transformed in the abovedescribed manner into competent yeast cells of the strain INVSC-1. […] The specificity and activity of the gene to be characterized can be determined with reference to the added fatty acids.
(§1) The yeast cells from the main cultures were harvested by centrifugation (100×g, 5 min, 20° C.) and washed with 100 mM NaHCO3, pH 8.0 to remove residual medium and fatty acids. Starting with the yeast cell sediments, fatty acid methyl esters (FAMEs) were prepared by acid methanolysis. To this end, the cell sediments were incubated for one hour at 80° C. together with 2 ml of 1 N methanolic sulfuric acid and 2% (v/v) of dimethoxypropane. The FAMEs were extracted twice with petroleum ether (PE). To remove nonderivatized fatty acids, the organic phases were washed in each case once with 2 ml of 100 mM NaHCO3, pH 8.0 and 2 ml of distilled water. Thereafter, the PE phases were dried with Na2SO4, evaporated under argon and taken up in 100 μl of PE. […] The conditions for the GLC analysis are as follows: the oven temperature was programmed from 50° C. to 250° C. with an increment of 5° C./min and finally 10 min at 250° C. (holding).
(§2) The signals are identified by comparing the retention times with corresponding fatty acid standards (Sigma). […] Biochem. Biophys.

[1] = test system: yeast strain INVSC-1 with empty vector pYES2.1/V5-His-TOPO; test: Vector control of Example 5: yeast with empty vector pYES2.1/V5-His-TOPO fed fatty acids; type: cell-based; details: 250 μM fatty acid fed to yeast INVSC-1, 12 h induction medium
Method: Plasmid pYES-D9Elo(Ro) was transformed into the yeast strain INVSC-1 (Invitrogen) following the manufacturer's instructions and selected on plates with DOB-U agar on the basis of uracil auxotrophy. Positive colonies were identified by PCR. To this end, in each case 1 μl of defrosted cells, 200 μM dNTPs, 2.5 U Taq polymerase and 100 pmol of each primer were used to carry out in a total volume of 50 μl. The PCR conditions were as follows: first denaturation at 95° C. for 5 minutes, followed by 30 cycles of 30 seconds at 94° C., 1 minute at 55° C. and 2 minutes at 72° C., and a last elongation step for 10 minutes at 72° C. In parallel, the empty vector pYES2.1/V5-His-TOPO was transformed in the abovedescribed manner into competent yeast cells of the strain INVSC-1. Yeast cells with the plasmid pYES-D9Elo(Ro) and pYES2.1/V5-His-TOPO were incubated for 12 h in liquid DOB-U medium at 28° C., 200 rpm, and then for a further 12 h in induction medium (DOB-U+2% (w/v) galactose+2% (w/v) raffinose) and 250 μM of fatty acids added to the medium. The specificity and activity of the gene to be characterized can be determined with reference to the added fatty acids.
The yeast cells from the main cultures were harvested by centrifugation (100×g, 5 min, 20° C.) and washed with 100 mM NaHCO3, pH 8.0 to remove residual medium and fatty acids. Starting with the yeast cell sediments, fatty acid methyl esters (FAMEs) were prepared by acid methanolysis. To this end, the cell sediments were incubated for one hour at 80° C. together with 2 ml of 1 N methanolic sulfuric acid and 2% (v/v) of dimethoxypropane. The FAMEs were extracted twice with petroleum ether (PE). To remove nonderivatized fatty acids, the organic phases were washed in each case once with 2 ml of 100 mM NaHCO3, pH 8.0 and 2 ml of distilled water. Thereafter, the PE phases were dried with Na2SO4, evaporated under argon and taken up in 100 μl of PE. The samples were separated on a DB-23 capillary column (30 m, 0.25 mm, 0.25 μm, Agilent) in a Hewlett-Packard 6850 gas chromatograph equipped with flame ionization detector. The conditions for the GLC analysis are as follows: the oven temperature was programmed from 50° C. to 250° C. with an increment of 5° C./min and finally 10 min at 250° C. (holding).
The signals are identified by comparing the retention times with corresponding fatty acid standards (Sigma). The methodology is described for example in Napier and Michaelson, 2001, Lipids. 36(8):761-766; Sayanova et al., 2001, Journal of Experimental Botany. 52(360):1581-1585, Sperling et al., 2001, Arch. Biochem. Biophys. 388(2):293-298 and Michaelson et al., 1998, FEBS Letters. 439(3):215-218.

D6Elo(Pir) = test: Yeast feeding assay: elongation of fed fatty acids by yeast expressing pYES-D6Elo(Pir), GC analysis of FAMEs; type: cell-based, Pythium irregulare; details: for Elongation efficiency in percent, pYES-D6Elo(Pir): 250 μM fatty acid fed to transformed yeast INVSC-1, 12 h induction medium, (area product/area substrate + product)*100
Method: (§3) Plasmid pYES-d6Elo(Pir) was then transformed into the yeast strain INVSC-1 (Invitrogen) following the manufacturer's instructions and selected on plates with DOB-U agar on the basis of uracil auxotrophy. Positive colonies were identified by PCR. To this end, in each case 1 μl of defrosted cells, 200 μM dNTPs, 2.5 U Taq-polymerase and 100 pmol of each primer were used to carry out in a total volume of 50 μl. The PCR conditions were as follows: first denaturation at 95° C. for 5 minuten, followed by 30 cycles of 30 seconds at 94° C., 1 minute at 55° C. and 2 minutes at 72° C., and a last elongation step for 10 minutes at 72° C. In parallel, the empty vector pYES2.1/V5-His-TOPO was transformed in the abovedescribed manner into competent yeast cells of the strain INVSC-1. Yeast cells with the plasmid pYES-d6Elo(Pir) and pYES2.1/V5-His-TOPO, respectively, were incubated for 12 h in liquid DOB-U medium at 28° C., 200 rpm, and then for a further 12 h in induction medium (DOB-U+2% (w/v) galactose+2% (w/v) raffinose) and 250 μM of fatty acids added to the medium. The specificity and activity of the gene to be characterized can be determined with reference to the added fatty acids.
as §1, §2
(§4) Table 3 describes the reaction of fatty acids by the plasmids which had been introduced into the yeasts. The conversion rates for the various exogenously added fatty acids are indicated in percent elongation efficiency. The blank vector pYES2.1/V5-His-TOPO acts as control for the activity of the gene sequence D6Elo(Pir). Fatty acids which have been formed in the yeasts with the vector pYES-D6Elo(Pir), but not in yeasts with the vector pYES2.1/V5-His-TOPO, can be attributed to the activity of the D6Elo(Pir) translation product.

[2] = test system: yeast strain INVSC-1 with empty vector pYES2.1/V5-His-TOPO; test: Vector control of Example 4: yeast with empty vector pYES2.1/V5-His-TOPO fed fatty acids; type: cell-based; details: blank vector control; 250 μM fatty acid fed to yeast INVSC-1, 12 h induction medium
Method: as §3, §1, §2, §4

[3] = test system: yeast strain INVSC-1 with empty vector pYES2.1/V5-His-TOPO; test: Vector control of Example 6: yeast with empty vector pYES2.1/V5-His-TOPO fed fatty acids; type: cell-based; details: 250 μM fatty acid fed to yeast INVSC-1, 12 h induction medium
Method: Plasmid pYES-D5Elo(Eg) was then transformed into the yeast strain INVSC-1 (Invitrogen) following the manufacturer's instructions and selected on plates with DOB-U agar on the basis of uracil auxotrophism. Positive colonies were identified by PCR. To this end, in each case 1 μl of defrosted cells, 200 μM dNTPs, 2.5 U Taq polymerase and 100 pmol of each primer were used to carry out in a total volume of 50 μl. The PCR conditions are as follows: first denaturation at 95° C. for 5 minutes, followed by 30 cycles of 30 seconds at 94° C., 1 minute at 55° C. and 2 minutes at 72° C., and a last elongation step for 10 minutes at 72° C. In parallel, the empty vector pYES2.1/V5-His-TOPO was transformed in the abovedescribed manner into competent yeast cells of the strain INVSC-1. Yeast cells with the plasmid pYES-D5Elo(Eg) and pYES2.1/V5-His-TOPO were incubated for 12 h in liquid DOB-U medium at 28° C., 200 rpm, and then for a further 12 h in induction medium (DOB-U+2% (w/v) galactose+2% (w/v) raffinose) and 250 μM of fatty acids added to the medium. The specificity and activity of the gene to be characterized can be determined with reference to the added fatty acids.
The yeast cells from the main cultures were harvested by centrifugation (100×g, 5 min, 20° C.) and washed with 100 mM NaHCO3, pH 8.0 to remove residual medium and fatty acids. […]

D5Elo(Eg) = type: cell-based, Euglena gracilis
Method: Plasmid pYES-D5Elo(Eg) was then transformed into the yeast strain INVSC-1 (Invitrogen) following the manufacturer's instructions and selected on plates with DOB-U agar on the basis of uracil auxotrophism. […] In parallel, the empty vector pYES2.1/V5-His-TOPO was transformed in the abovedescribed manner into competent yeast cells of the strain INVSC-1. Yeast cells with the plasmid pYES-D5Elo(Eg) and pYES2.1/V5-His-TOPO were incubated for 12 h in liquid DOB-U medium at 28° C., 200 rpm, and then for a further 12 h in induction medium (DOB-U+2% (w/v) galactose+2% (w/v) raffinose) and 250 μM of fatty acids added to the medium. The specificity and activity of the gene to be characterized can be determined with reference to the added fatty acids. […]
The substrate specificity of D5Elo(Eg) [SEQ ID NO: 8] was determined after expression and feeding of various fatty acids (FIG. 2). […] In FIG. 2A, yeasts were analyzed which had not been fed exogenously added fatty acids. […] In FIG. 2C, the yeast cells were analyzed after transformation with plasmid pYES-D5Elo(Eg) and feeding the fatty acid 20:4Δ5,8,11,14. […] In FIG. 2D, the yeast cells were analyzed after transformation with plasmid pYES-D5Elo(Eg) and feeding the fatty acid 20:5Δ5,8,11,14,17.

Row | SMILES | Elongation efficiency as a percentage, D9Elo(Ro) (D9Elo(Ro)) [%] | Elongation efficiency as a percentage, pYes2.1/V5-His-TOPO [1] [%] | Elongation efficiency in percent, pYES-D6Elo(Pir) (D6Elo(Pir)) [%] | Elongation efficiency in percent, pYES2.1/V5-His-TOPO [2] [%] | Elongation efficiency as a percentage, pYes2.1/V5-His-TOPO [3] [%] | Elongation efficiency as a percentage, D5Elo(EG) (D5Elo(Eg)) [%] | Substrate preference of D6Elo(Pir), in words (D6Elo(Pir); yeast feeding, summary of Table 3) | Elongation efficiency as a percentage, D5Elo(EG) (D5Elo(Eg); 250 μM fatty acid fed to transformed yeast INVSC-1, 12 h induction medium) [%]
1 | CCCCCC/C=C\CCCCCCCC(=O)O [16:1A9] | 36.6 | 2.4 |  |  |  |  |  | 
2 | CCCCCCCC/C=C\CCCCCCCC(=O)O [18:1Δ9, oleic acid] | 8.3 | 0.0 |  |  |  |  |  | 
3 | CCCCCC/C=C\CCCCCCCCCC(=O)O [18:1Δ11, cis-vaccenic acid] |  |  | 28.6 | 0.0 |  |  |  | 
4 | CCCCC/C=C\C/C=C\CCCCCCCC(=O)O [18:2Δ9, 12, linoleic acid] | 19.3 | 0.0 | 11.1 | 1.1 |  |  |  | 
5 | CCCCC/C=C\C/C=C\C/C=C\CCCCC(=O)O [18:3Δ6, 9, 12, γ-linolenic acid] |  |  | 27.1 | 1.3 | 0.9 | 2.9 |  | 
6 | CC/C=C\C/C=C\C/C=C\CCCCCCCC(=O)O [18:3Δ9, 12, 15, linolenic acid] | 49.3 | 0.0 | 19.1 | 1.4 |  |  |  | 
7 | CC/C=C\C/C=C\C/C=C\C/C=C\CCCCC(=O)O [18:4Δ6, 9, 12, 15, stearidonic acid] |  |  | 38.7 | 1.2 |  |  |  | 
8 | CCCCC/C=C\C/C=C\C/C=C\C/C=C\CCCC(=O)O [20:4Δ5, 8, 11, 14, arachidonic acid] |  |  | 6.7 | 0.0 | 0.0 |  | Less activity | 46.1
